Results on one compound are retold here after patent publication US20250019371A1, “SMALL-MOLECULAR INHIBITORS FOR THE BETA-CATENIN/ B-CELL LYMPHOMA 9 PROTEIN-PROTEIN INTERACTION” (H. LEE MOFFITT CANCER CENTER AND RESEARCH INSTITUTE, INC., priority 2021, published 2025).

In one assay the target is T1, β-catenin/BCL9 PPI (Homo sapiens, UniProt P35222).
T1 construct: Full-length β-catenin (residues 1-781); host or cells: E. coli BL21 DE3
T1 sequence (P35222 1-781): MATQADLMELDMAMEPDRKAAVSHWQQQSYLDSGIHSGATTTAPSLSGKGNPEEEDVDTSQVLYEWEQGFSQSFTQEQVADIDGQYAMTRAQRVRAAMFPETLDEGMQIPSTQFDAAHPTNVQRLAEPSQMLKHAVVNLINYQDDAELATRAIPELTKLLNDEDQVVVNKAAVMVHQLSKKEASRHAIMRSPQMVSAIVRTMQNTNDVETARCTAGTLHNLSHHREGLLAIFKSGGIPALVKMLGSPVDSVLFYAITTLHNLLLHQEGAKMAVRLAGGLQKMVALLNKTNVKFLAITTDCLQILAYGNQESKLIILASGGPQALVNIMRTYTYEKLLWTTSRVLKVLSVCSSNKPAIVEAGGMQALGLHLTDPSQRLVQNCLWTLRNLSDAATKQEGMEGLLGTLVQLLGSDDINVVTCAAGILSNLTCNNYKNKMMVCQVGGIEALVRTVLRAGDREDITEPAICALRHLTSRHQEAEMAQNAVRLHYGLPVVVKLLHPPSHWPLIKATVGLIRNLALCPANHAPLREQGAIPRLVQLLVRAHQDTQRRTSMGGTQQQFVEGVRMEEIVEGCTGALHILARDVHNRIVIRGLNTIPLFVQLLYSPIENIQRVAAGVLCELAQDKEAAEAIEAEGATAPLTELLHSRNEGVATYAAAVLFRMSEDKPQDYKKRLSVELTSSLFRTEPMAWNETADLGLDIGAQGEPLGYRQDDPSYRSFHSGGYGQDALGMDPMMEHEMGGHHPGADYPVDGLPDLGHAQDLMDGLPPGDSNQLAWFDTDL
In words: AlphaScreen competitive inhibition assay of β-catenin/BCL9 PPI. The format is binding. The method, then:
AlphaScreen Assays of β-Catenin and BCL9 Interaction. Experiments were performed in white opaque 384-well plates from PerkinElmer (Waltham, MA), and the samples were read on a Biotek Synergy 2 plate reader (Winooski, VT) with excitation at 680 nm and emission at 570 nm. The standard AlphaScreen protocol was used with a sensitivity setting of 200. All dilutions were made in 1x assay buffer containing 25 mM Hepes (pH 7.4), 100 mM NaCl, 0.01% Triton X-100 and 0.1% BSA to minimize nonspecific interactions.
For the β-catenin/BCL9 assay, 5 nM biotinylated BCL9, and 50 nM His6-tagged 8-catenin were incubated in assay buffer for 30 min. Different concentrations of the tested inhibitor were added and incubated in 20 μL assay buffer for another 1 h. All of the assay plates were covered and gently mixed on an orbital shaker. Donor and acceptor beads were then added to the plates to a final concentration of 10 μg/mL in 25 μL assay buffer. The mixture was incubated for 1 h before detection. The IC50 value was determined by nonlinear least-square analysis of GraphPad Prism 8.0. […] All of the experiments were performed in triplicate and carried out in the presence of 1% DMSO for small-molecule inhibitors. Each compound was assayed at least by three independent experiments. The results were expressed as mean±standard deviation.

The next assay has as its system SW480. In words: MTS cell viability assay, SW480. The note with it: Homo sapiens, 72 h, Wnt/β-catenin hyperactive, mean ± SD (n = 3). Type of assay: cell-based. The method, then:
(§1) MTS Cell Growth Inhibition Experiments. Colorectal cancer cells (SW480 and HCT116) and triple negative breast cancer cells (MDA-MB-231 and MDA-MB-468) were seeded in 96-well plates at 5×10^3 cells/well in DMEM with 10% FCS, maintained overnight at 37° C., and incubated with the tested compounds at various concentrations. Human mammary epithelial cell MCF10A were seeded in 96-well plates at 1×10^4 cells/well in MEGM (CC-3150, Lonza) with 100 ng/mL cholera toxin, maintained overnight at 37° C., and incubated with the tested compounds at various concentrations. Cell viability was monitored after 72 h using a freshly prepared mixture of 1 part phenazine methosulfate (PMS, Sigma) solution (0.92 mg/mL) and 19 parts 3-(4,5-dimethylthiazol-2-yl)-5-(3-carboxymethoxyphenyl)-2-(4-sulfophenyl)-2H-tetrazolium (MTS, Promega) solution (2 mg/mL). Cells were incubated in 10 μL of this solution at 37° C. for 3 h, and A490 was measured. […] Experiments were performed in triplicate.
(Tetrazolium dyes change colour on reduction, which living cells bring about.)

Another assay has as its system HCT116. In words: MTS cell viability assay, HCT116. The format is cell-based. The note with it: Homo sapiens, HCT-116; 72 h, Wnt/β-catenin hyperactive, mean ± SD (n = 3). The method, then: as §1
A further assay relates to MDA-MB-231. In words: MTS cell viability assay, MDA-MB-231. Type of assay: cell-based. The note with it: Homo sapiens, 72 h, Wnt/β-catenin hyperactive, mean ± SD (n = 3). How it is done: as §1
A further assay has as its system MDA-MB-468. In words: MTS cell viability assay, MDA-MB-468. Type of assay: cell-based. The note with it: Homo sapiens, 72 h, Wnt/β-catenin hyperactive, mean ± SD (n = 3). The method, then:
as §1

Another assay relates to MCF10A. In words: MTS cell viability assay, MCF10A. Type of assay: cell-based, human. The following applies: Homo sapiens, MCF-10A; 72 h, Wnt/β-catenin normal, mean ± SD (n = 3). How it is done: as §1
Assay [1] relates to Wnt/β-catenin hyperactive cancer cells. In words: MTS cell viability assays, cell panel. The following applies: SW480, HCT116, MDA-MB-231, MDA-MB-468; read-out: IC50s for viability of Wnt/β-catenin hyperactive cancer cells. The format is cell-based. How it is done:
as §1

For a further assay, the system named is β-catenin/E-cadherin PPI. In words: Co-immunoprecipitation in HCT116 cells, β-catenin/E-cadherin. Type of assay: cell-based. The following applies: concentrations sufficient to disrupt β-catenin/BCL9. How it is done: C0-Immunoprecipitation (C0-IP) Experiments. HCT116 cancer cells with hyperactive 8-catenin signaling at 1×10^6 cells/mL were treated with different concentrations of the inhibitor for 24 h. Cells were then lysed in buffer containing 50 mM Tris, pH 7.4, 150 mM NaCl, 1% Nonidet P-40, 2 mM EDTA, and protease inhibitors. The cell lysates were pre-adsorbed to A/G plus agarose (sc-2003, Santa Cruz Biotechnology) at 4° C. for 1 h. Pre-adsorbed lysates were incubated with a specific primary antibody against β-catenin (610153, BD Biosciences) overnight at 4° C. A/G plus agarose was then added to the lysate mixture and incubated for 3 h. The beads were washed four times with the lysis buffer at 4° C. The bound protein was eluted by boiling in the SDS sample buffer and loaded onto 8% SDS polyacrylamide gel for electrophoretic analysis. Separated proteins were transferred onto nitrocellulose membranes for immunoblot analysis. The antibodies against BCL9 (ab37305, Abcam) and E-cadherin (610404, BD Biosciences), were incubated with the membranes, respectively. IRDye 680LT goat anti mouse IgG (827-11080, LiCOR) and IRDye 800CW goat anti rabbit IgG (926-32211, LiCOR) were used as the secondary antibodies. The images were detected by the Odyssey Infrared Imaging System (LiCOR). Experiments were performed in triplicate.

Structures are written as SMILES. Like-named read-outs stand apart in the source and are kept apart here.

For `CC(C)(Oc1cccc(N2CCC[C@H](C(=O)N(Cc3ccc(-c4cccs4)cc3)C3CC3)C2)c1)C(=O)NS(=O)(=O)c1ccc(C#N)cc1` [Compound 30, (S)-((4-Cyanophenyl)sulfonyl) (2-(3-(3-(cyclopropyl(4-(thiophen-2-yl)benzyl)carbamoyl)piperidin-1-yl)phenoxy)-2-methylpropanoyl)amide], the Ki was 3.6 µM at β-catenin/BCL9 PPI (AlphaScreen competitive inhibition assay, read-out: Ki for disruption of the β-catenin/BCL9 PPI); at most 5 µM at β-catenin/BCL9 PPI (Table 2, AlphaScreen, inhibitors 27-30 (R- and S-isomers), preliminary, read-out: Ki). Further, on β-catenin/BCL9 PPI (SAR comparison), the “AlphaScreen inhibitory activity in words” value is listed as “slightly superior to R-isomer”. Further, the IC50 at β-catenin/BCL9 PPI (Table 2, AlphaScreen, inhibitors 27-30 (R- and S-isomers), preliminary) was at most 5 µM; in the assay with SW480, 16.3 ± 2.04 µM; in the assay on HCT116, 29.6 ± 1.02 µM; in the assay on MDA-MB-231 it was 14.3 ± 0.57 µM; in the assay with MDA-MB-468, 17.8 ± 1.01 µM; with MCF10A, 139 ± 3.16 µM. The IC50 in assay [1] is 14 to 30 µM. For the same compound, the “effect on β-catenin/E-cadherin PPI in cells (co-IP)” value with β-catenin/E-cadherin PPI is “did not affect the β-catenin/E-cadherin PPI”.
